# Assay results from patent publication US10160729B2, “Hsp70 modulators and methods for making and using the same” (Memorial Sloan Kettering Cancer Center, priority 2014, dated 2018).
# System: MOLM-13 cells
# Assay: Caspase cleavage assay (Caspase3, 7 activation)
# Assay type: cell-based
# Settings: Homo sapiens, 16 h treatment, caspase substrate Z-DEVD-R110, read-out: c* Concentration at which 50% of the maximum signal was achieved (caspase activation)
# Procedure: Caspase3, 7 Activation. MOLM-13 cells (30,000 cells/well) were plated in black 96-well plates (Corning Cat. #3603) in 40 μL of RPMI media, and left in an incubator (37° C., 5% CO2) for up to 24 h. Cells were treated for 16 h with compounds or DMSO (control) at desired concentrations in 50 μL of media. Drugs were added in triplicate wells. Following exposure of cells to Hsp70 inhibitors, 50 μL of buffer containing 10 mM HEPES (pH 7.5), 2 mM EDTA, 0.1% CHAPS and the caspase substrate Z-DEVD-R110 at 25 μM was added to each well. Plates were incubated until the signal stabilized and then the fluorescence signal of each well was measured in an Analyst GT microplate reader. The percentage increase in apoptotic cells was calculated by comparison of the fluorescence reading obtained from treated versus control cells.
row,EC50 [nM],SMILES
1,< 200,"C=CCN1CCN(c2ncc(Sc3ccc(C(N)=O)cc3)c(OCc3cccc(OC)c3)n2)CC1 [190o, 4-((2-(4-Allylpiperazin-1-yl)-4-((3-methoxybenzyl)oxy)pyrimidin-5-yl)thio)benzamide]"
2,< 200,"COc1cccc(COc2nc(N3CCN(C4CC4)CC3)ncc2Sc2ccc(C(N)=O)cc2)c1 [190p, 4-((2-(4-Cyclopropylpiperazin-1-yl)-4-((3-methoxybenzyl)oxy)pyrimidin-5-yl)thio) benzamide]"
3,< 200,"COc1cccc(COc2nc(N3CCN(CC4CC4)CC3)ncc2Sc2ccc(C(N)=O)cc2)c1 [190q, 4-((2-(4-(Cyclopropylmethyl)piperazin-1-yl)-4-((3-methoxybenzyl)oxy)pyrimidin-5-yl)thio)benzamide]"
4,200 to 400,"COc1cccc(COc2nc(N3CCN(C4COC4)CC3)ncc2Sc2ccc(C(N)=O)cc2)c1 [190r, 4-((4-((3-Methoxybenzyl)oxy)-2-(4-(oxetan-3-yl)piperazin-1-yl)pyrimidin-5-yl)thio)benzamide]"
5,< 200,"COc1cccc(COc2nc(N3CCN(C)C(=O)C3)ncc2Sc2ccc(C(N)=O)cc2)c1 [190t, 4-((4-((3-Methoxybenzyl)oxy)-2-(4-methyl-3-oxopiperazin-1-yl)pyrimidin-5-yl)thio) benzamide]"
6,< 200,"COc1cccc(COc2nc(N3CCN(Cc4ccco4)CC3)ncc2Sc2ccc(C(N)=O)cc2)c1 [190u, 4-((2-(4-(Furan-2-ylmethyl)piperazin-1-yl)-4-((3-methoxybenzyl)oxy)pyrimidin-5-yl)thio)benzamide]"
7,< 200,"COc1cccc(COc2nc(N3CCN(Cc4nccs4)CC3)ncc2Sc2ccc(C(N)=O)cc2)c1 [190v, 4-((4-((3-Methoxybenzyl)oxy)-2-(4-(thiazol-2-ylmethyl)piperazin-1-yl)pyrimidin-5-yl)thio)benzamide]"
8,400 to 1000,"CN1CCN(c2ncc(Sc3ccc(N)cc3)c(OCc3ccccc3)n2)CC1 [compound 10, 4-(4-(Benzyloxy)-2-(4-methylpiperazin-1-yl)pyrimidin-5-ylthio)aniline]"
9,200 to 400,"COc1ccc(Sc2cnc(N3CCN(C)CC3)nc2OCc2ccccc2)cc1N [compound 11, 5-((4-(Benzyloxy)-2-(4-methylpiperazin-1-yl)pyrimidin-5-yl)thio)-2-methoxyaniline]"
10,400 to 1000,"CN1CCN(c2ncc(Sc3cccnc3N)c(OCc3ccccc3)n2)CC1 [compound 13, 3-((4-(Benzyloxy)-2-(4-methylpiperazin-1-yl)pyrimidin-5-yl)thio)pyridin-2-amine]"
11,400 to 1000,"CN1CCN(c2ncc(Sc3ccc(C=O)o3)c(OCc3ccccc3)n2)CC1 [compound 29, 5-((4-(Benzyloxy)-2-(4-methylpiperazin-1-yl)pyrimidin-5-yl)thio)furan-2-carbaldehyde]"
12,400 to 1000,"CC(=O)c1ccc(Sc2cnc(N3CCN(C)CC3)nc2OCc2ccccc2)s1 [compound 30, 1-(5-((4-(Benzyloxy)-2-(4-methylpiperazin-1-yl)pyrimidin-5-yl)thio)thiophen-2-yl)ethanone]"
13,1000 to 1200,"CC(=O)c1ccc(Sc2cnc(N3CCN(C)CC3)nc2OCc2ccccc2)cc1 [compound 36, 1-(4-((4-(Benzyloxy)-2-(4-methylpiperazin-1-yl)pyrimidin-5-yl)thio)phenyl)ethanone]"
14,400 to 1000,"CN1CCN(c2ncc(Sc3ccc(O)cc3)c(OCc3ccccc3)n2)CC1 [compound 37, 4-((4-(Benzyloxy)-2-(4-methylpiperazin-1-yl)pyrimidin-5-yl)thio)phenol]"
15,400 to 1000,"CN1CCN(c2ncc(Sc3cccc(C=O)c3)c(OCc3ccccc3)n2)CC1 [compound 43, 3-((4-(Benzyloxy)-2-(4-methylpiperazin-1-yl)pyrimidin-5-yl)thio)benzaldehyde]"
16,400 to 1000,"CN1CCN(c2ncc(Sc3ccc(C#N)cc3)c(OCc3ccccc3)n2)CC1 [compound 44, 4-((4-(Benzyloxy)-2-(4-methylpiperazin-1-yl)pyrimidin-5-yl)thio)benzonitrile]"
17,200 to 400,"CN1CCN(c2ncc(Sc3ccc(C=O)cc3)c(OCc3ccccc3)n2)CC1 [compound 45, 4-((4-(Benzyloxy)-2-(4-methylpiperazin-1-yl)pyrimidin-5-yl)thio)benzaldehyde]"
18,400 to 1000,"CN1CCN(c2ncc(Sc3cccc(C#N)c3)c(OCc3ccccc3)n2)CC1 [compound 47, 3-((4-(Benzyloxy)-2-(4-methylpiperazin-1-yl)pyrimidin-5-yl)thio)benzonitrile]"
19,200 to 400,"COC(=O)c1ccc(Sc2cnc(N3CCN(C)CC3)nc2OCc2ccccc2)cc1 [compound 49, Methyl 4-((4-(benzyloxy)-2-(4-methylpiperazin-1-yl)pyrimidin-5-yl)thio)benzoate]"

row,EC50 [nM],SMILES
1,≥ 1200,"C=CC(=O)Nc1ccc(Sc2cnc(N3CCN(C)CC3)nc2OCc2ccccc2)cn1 [compound 56, N-(5-((4-(Benzyloxy)-2-(4-methylpiperazin-1-yl)pyrimidin-5-yl)thio)pyridin-2-yl)acrylamide]"
2,400 to 1000,"CN1CCN(c2ncc(Sc3ccc(NC(=O)CN)cc3)c(OCc3ccccc3)n2)CC1 [compound 58, 2-Amino-N-(4-((4-(benzyloxy)-2-(4-methylpiperazin-1-yl)pyrimidin-5-yl)thio)phenyl)acetamide]"
3,400 to 1000,"COc1ccc(Sc2cnc(N3CCN(C)CC3)nc2OCc2ccccc2)c(N)c1 [compound 62, 2-((4-(Benzyloxy)-2-(4-methylpiperazin-1-yl)pyrimidin-5-yl)thio)-5-methoxyaniline]"
4,≥ 1200,"COc1ncc(Sc2cnc(N3CCN(C)CC3)nc2OCc2ccccc2)cc1N [compound 63, 5-((4-(Benzyloxy)-2-(4-methylpiperazin-1-yl)pyrimidin-5-yl)thio)-2-methoxypyridin-3-amine]"
5,400 to 1000,"CC(Oc1ccc(Sc2cnc(N3CCN(C)CC3)nc2OCc2ccccc2)cc1)C(N)=O (centres unmarked) [compound 65, 2-(4-((4-(Benzyloxy)-2-(4-methylpiperazin-1-yl)pyrimidin-5-yl)thio)phenoxy)propanamide]"
6,200 to 400,"CN1CCN(c2ncc(Sc3ccc(C(N)=O)cc3)c(OCc3ccccc3)n2)CC1 [compound 66, 4-((4-(Benzyloxy)-2-(4-methylpiperazin-1-yl)pyrimidin-5-yl)thio)benzamide]"
7,200 to 400,"CN1CCN(c2ncc(Sc3cccc(C(N)=O)c3)c(OCc3ccccc3)n2)CC1 [compound 67, 3-((4-(Benzyloxy)-2-(4-methylpiperazin-1-yl)pyrimidin-5-yl)thio)benzamide]"
8,1000 to 1200,"CN1CCN(c2ncc(Sc3ccc(F)c(C(N)=O)c3)c(OCc3ccccc3)n2)CC1 [compound 68, 5-((4-(Benzyloxy)-2-(4-methylpiperazin-1-yl)pyrimidin-5-yl)thio)-2-fluorobenzamide]"
9,< 200,"CN1CCN(c2ncc(Sc3ccc(C(N)=O)c(C(F)(F)F)c3)c(OCc3ccccc3)n2)CC1 [compound 70, 4-((4-(Benzyloxy)-2-(4-methylpiperazin-1-yl)pyrimidin-5-yl)thio)-2-(trifluoromethyl)benzamide]"
10,1000 to 1200,"Cc1cc(C(N)=O)ccc1Sc1cnc(N2CCN(C)CC2)nc1OCc1ccccc1 [compound 73, 4-((4-(Benzyloxy)-2-(4-methylpiperazin-1-yl)pyrimidin-5-yl)thio)-3-methylbenzamide]"
11,400 to 1000,"Cc1cc(Sc2cnc(N3CCN(C)CC3)nc2OCc2ccccc2)ccc1C(N)=O [compound 74, 4-((4-(Benzyloxy)-2-(4-methylpiperazin-1-yl)pyrimidin-5-yl)thio)-2-methylbenzamide]"
12,200 to 400,"CN1CCN(c2ncc(Sc3ccc(C(N)=O)c(Br)c3)c(OCc3ccccc3)n2)CC1 [compound 77, 4-((4-(Benzyloxy)-2-(4-methylpiperazin-1-yl)pyrimidin-5-yl)thio)-2-bromobenzamide]"
13,400 to 1000,"CN1CCN(c2ncc(Sc3ccc(C(N)=O)c(Cl)c3)c(OCc3ccccc3)n2)CC1 [compound 78, 4-((4-(Benzyloxy)-2-(4-methylpiperazin-1-yl)pyrimidin-5-yl)thio)-2-chlorobenzamide]"
14,200 to 400,"CN1CCN(c2ncc(Sc3ccc(C(N)=O)c(F)c3)c(OCc3ccccc3)n2)CC1 [compound 79, 4-((4-(Benzyloxy)-2-(4-methylpiperazin-1-yl)pyrimidin-5-yl)thio)-2-fluorobenzamide]"
15,400 to 1000,"CN1CCN(c2ncc(Sc3ccc(C(N)=O)c(I)c3)c(OCc3ccccc3)n2)CC1 [compound 80, 4-((4-(Benzyloxy)-2-(4-methylpiperazin-1-yl)pyrimidin-5-yl)thio)-2-iodobenzamide]"
16,1000 to 1200,"CN1CCN(c2ncc(Sc3ccc(C(=O)O)cc3)c(OCc3ccccc3)n2)CC1 [compound 81, 4-((4-(Benzyloxy)-2-(4-methylpiperazin-1-yl)pyrimidin-5-yl)thio)benzoic acid]"
17,400 to 1000,"CNC(=O)c1ccc(Sc2cnc(N3CCN(C)CC3)nc2OCc2ccccc2)cc1 [compound 83, 4-((4-(Benzyloxy)-2-(4-methylpiperazin-1-yl)pyrimidin-5-yl)thio)-N-methylbenzamide]"
18,200 to 400,"CN1CCN(c2ncc(Sc3ccc(C(=O)N(C)C)cc3)c(OCc3ccccc3)n2)CC1 [compound 84, 4-((4-(Benzyloxy)-2-(4-methylpiperazin-1-yl)pyrimidin-5-yl)thio)-N,N-dimethylbenzamide]"
19,400 to 1000,"CN1CCN(c2ncc(Sc3ccc(C(=O)NCN4CCCC4)cc3)c(OCc3ccccc3)n2)CC1 [compound 92, 4-((4-(Benzyloxy)-2-(4-methylpiperazin-1-yl)pyrimidin-5-yl)thio)-N-(pyrrolidin-1-ylmethyl)benzamide]"
